Columns and labels:
BRD4 BD2 = target: T1, BRD4 BD2 (Homo sapiens, UniProt O60885, Y97A); experiment: TR-FRET competition assay, BRD4 BD2; format: binding; details: single mutant tandem BRD4, read-out: pIC50 in the BRD4 BD2 assay (converted)
T1 construct: BRD4 (1-477) (Y97A) and (Y390A); made in house; host or cells: E. coli (pET15b vector)
Method: Bromodomain binding was assessed utilising a time resolved fluorescent resonance energy transfer (TR-FRET) competition assay. To enable this approach a known, high affinity, pan-BET interacting small molecule was labelled with Alexa Fluor® 647, which is a far-red-fluorescent dye (Reference Compound X). Reference Compound X acts as a reporter of bromodomain binding and is the acceptor fluorophore component of the TR-FRET pair. Europium chelate, conjugated to an anti-6*His antibody, was utilised as the donor fluorophore in the TR-FRET pair. […] A TR-FRET signal is generated when the donor and acceptor fluorophores are in close proximity, between 20-80 Å, which is enabled in this assay by binding of Reference Compound X to the bromodomain protein.
If the acceptor fluorophore is in close proximity then energy transfer can occur, which leads to emission of Alexa Fluor® 647 at λ665 nm. In the presence of competitor compound, Reference Compound X can be displaced from binding to the bromodomain. If displacement occurs, the acceptor fluorophore is no longer in proximity to the donor fluorophore, which prevents fluorescent energy transfer and, subsequently, a loss of Alexa Fluor® 647 emission at λ665 nm.
The competition of the compounds of formula (I) with Reference Compound X for binding to the BET family (BRD2, BRD3, BRD4 and BRDT) was assessed using protein truncates spanning both bromodomain 1 (BD1) and bromodomain 2 (BD2). In order to monitor differential binding to either BD1 or BD2, single residue mutations of key tyrosines to alanine were made in the acetyl lysine binding pockets. To validate this approach, a double residue mutant tandem domain protein was produced for each of the BET family members. Utilising a Fluorescence Polarisation approach, binding affinities for each of the single and double mutants for Reference Compound X were determined. […] Final purification was completed by Superdex 200 prep grade size exclusion column. Purified protein was stored at −80° C. in 20 mM HEPES pH 7.5 and 100 mM NaCl.
Protocol for Bromodomain BRD2, 3, 4 and T, BD1+BD2 mutant TR-FRET competition assays: All assay components were dissolved in an assay buffer composing of 50 mM HEPES pH7.4, 50 mM NaCl, 5% Glycerol, 1 mM DTT and 1 mM CHAPS. Reference Compound X was diluted, in assay buffer containing 20 nM single mutant, tandem bromodomain protein, to a concentration equivalent to 2*Kd for this bromodomain. The solution containing bromodomain and Reference Compound X was added to dose response dilutions of test compound or DMSO vehicle (a maximum of 0.5% DMSO is used in this assay) in Greiner 384 well black low volume microtitre plates and subsequently incubated for 30 minutes at room temperature. An equal volume of 3 nM of anti-6*His Europium chelate was added to all wells, followed by a further 30 minute incubation at room temperature. TR-FRET was detected using a Perkin Elmer Multimode plate reader, by exciting the donor fluorophore at λ337 nm and subsequently, after a delay of 50 μsecs, measuring emission of the donor and acceptor fluorophores at λ615 nm and λ665 nm, respectively. In order to control these assays, 16 replicates each of uninhibited (DMSO vehicle) and inhibited (10*IC50 concentrations of Example 11 of WO 2011/054846A1) TR-FRET assays were included on every microtitre plate.

[1] = test system: BET family (BRD2, BRD3, BRD4 and BRDT) tandem bromodomain proteins; experiment: Fluorescence Polarisation binding of Reference Compound X to mutant tandem BET proteins; parameters: species or system Human
Method: The competition of the compounds of formula (I) with Reference Compound X for binding to the BET family (BRD2, BRD3, BRD4 and BRDT) was assessed using protein truncates spanning both bromodomain 1 (BD1) and bromodomain 2 (BD2). In order to monitor differential binding to either BD1 or BD2, single residue mutations of key tyrosines to alanine were made in the acetyl lysine binding pockets. To validate this approach, a double residue mutant tandem domain protein was produced for each of the BET family members. Utilising a Fluorescence Polarisation approach, binding affinities for each of the single and double mutants for Reference Compound X were determined. […] The affinities of the single mutated bromdomain tandem proteins for Reference Compound X were equi-potent with the corresponding non-mutated BET protein. […] Final purification was completed by Superdex 200 prep grade size exclusion column. Purified protein was stored at −80° C. in 20 mM HEPES pH 7.5 and 100 mM NaCl. Protein identity was confirmed by peptide mass fingerprinting and predicted molecular weight confirmed by mass spectrometry.

| SMILES | IC50 (BRD4 BD2) [µM] | reduction in Kd (affinity), double mutant tandem proteins versus non mutated, wild type tandem BET proteins ([1]; double residue (Tyr to Ala) mutant tandem domain proteins) [fold] | affinities of the single mutated bromodomain tandem proteins versus the corresponding non-mutated BET protein ([1]; single mutated tandem proteins) |
| --- | --- | --- | --- |
| CNC(=O)c1cc(C(=O)NC2CC2)cc2c1OCC2C1CCOCC1 (single isomer, unassigned) [Example 120, (R*)-N^5-cyclopropyl-N^7-methyl-3-(tetrahydro-2H-pyran-4-yl)-2,3-dihydrobenzofuran-5,7-dicarboxamide] | 1 to 100 |  |  |
| CNC(=O)c1cc(C(=O)NC2CC2)cc2c1OCC2C1CCOCC1 (centres unmarked) [Example 104, N^5-cyclopropyl-N^7-methyl-3-(tetrahydro-2H-pyran-4-yl)-2,3-dihydrobenzofuran-5,7-dicarboxamide] | 1 to 100 |  |  |
| COc1ccc2c(c1)C(c1ccc(Cl)cc1)=N[C@@H](CC(=O)NCCCCCNC(=O)CCCCCC1(C)/C(=C/C=C/C=C/C3=[N+](CCCCS(=O)(=O)O)c4ccc(S(=O)(=O)O)cc4C3(C)C)N(CCCCS(=O)(=O)[O-])c3ccc(S(=O)(=O)O)cc31)c1nnc(C)n1-2 (some centres unmarked) [Reference Compound X] |  | > 1000 | equi-potent |
| CNC(=O)c1cc(C(=O)Nc2nnn(C)n2)cc2c1OC[C@H]2c1ccccc1 [Example 123, (S)-N^7-methyl-N^5-(2-methyl-2H-tetrazol-5-yl)-3-phenyl-2,3-dihydrobenzofuran-5,7-dicarboxamide] | 1 to 100 |  |  |
| CNC(=O)c1cc(C(=O)Nc2nccn2C)cc2c1OCC2c1ccccc1 (centres unmarked) [Example 118, N^7-methyl-N^5-(1-methyl-1H-imidazol-2-yl)-3-phenyl-2,3-dihydrobenzofuran-5,7-dicarboxamide] | 1 to 100 |  |  |
| CNC(=O)c1cc(C(=O)NCCn2cnnc2)cc2c1OCC2c1ccccc1 (centres unmarked) [Example 110, N^5-(2-(4H-1,2,4-triazol-4-yl)ethyl)-N^7-methyl-3-phenyl-2,3-dihydrobenzofuran-5,7-dicarboxamide] | 1 to 100 |  |  |
| CNC(=O)c1cc(C(=O)N[C@H]2C[C@@H]2C)cc2c1OCC2C1CCOCC1 (single isomer, unassigned) [Example 121, (R*)-N^7-methyl-N^5-((1S,2S)-2-methylcyclopropyl)-3-(tetrahydro-2H-pyran-4-yl)-2,3-dihydrobenzofuran-5,7-dicarboxamide] | 1 to 100 |  |  |
| CNC(=O)c1cc(C(=O)N[C@H]2[C@@H]3COC[C@@H]32)cc2c1OC[C@@H]2c1ccc(OCCN)cc1 (single isomer, unassigned) [Example 111, (R*)-3-(4-(2-aminoethoxy)phenyl)-N^5-((1R,5S,6r)-3-oxabicyclo[3.1.0]hexan-6-yl)-N^7-methyl-2,3-dihydrobenzofuran-5,7-dicarboxamide] | 1 to 100 |  |  |
| CCNC(=O)c1cc(C(=O)NC)c2c(c1)C(c1cccc(C(=O)OCC)c1)CO2 (single isomer, unassigned) [Example 113, (R*)-ethyl 3-(5-(ethylcarbamoyl)-7-(methylcarbamoyl)-2,3-dihydrobenzofuran-3-yl)benzoate] | 1 to 100 |  |  |
| CNC(=O)c1cc(C(=O)NCCc2cnn(C)c2)cc2c1OCC2c1ccc(F)cc1 (single isomer, unassigned) [Example 119, (R*)-3-(4-fluorophenyl)-N^7-methyl-N^5-(2-(1-methyl-1H-pyrazol-4-yl)ethyl)-2,3-dihydrobenzofuran-5,7-dicarboxamide] | 1 to 100 |  |  |
